Reference: patent US20070208087A1, “Compounds, compositions and methods for the treatment of inflammatory diseases” (priority 2001, published 2007)
Several values for one entry are separate records, joined by “and”; a condition that tells them apart may be missing. Identical values can stand only once. Like-named read-outs stand apart in the source and are kept apart here.

Tests used:
Assay type in all cases: cell-based
microglia = experiment: Ranking of NO release inhibition (Example 12); details: Microglia, ranking table
Description: The bis- and tris-dihydroxyaryl compounds were ranked in order of effectiveness for the inhibition of NO release as set out in Table 8.

Microglial cells = experiment: Dose response inhibition of NO release from microglia, 0.5-500 μM (Example 9); details: for μM NO release / μM NO release (No LPS average subtracted): 3 replicates
Description: This experiment was designed to determine the dose response inhibition of NO release from microglia by bis- and tris-dihydroxyaryl compounds when stimulated with LPS/IFNγ. Earlier experiments have demonostrated that some bis- and tris-dihydroxyaryl compounds are good inhibitors of NO release from microglia. This experiment is designed to determine a dose response for various effective bis- and tris-dihydroxyaryl compounds. Microglial cells were plated into 96 well plates at 1×10^5 cells/ml. At 48 hours, media was exchanged for media containing 10 ng/ml IFNγ and 10 μg/ml LPS and the following compounds 3, 4, 21, 26 and the positive control L-NAME. The doses tested were: 0.5 μM, 1.0 μM, 5.0 μM, 10 μM, 25 μM, 50 μM, 100 μM, 250 μM, and 500 μM. Nitric oxide release was measured after 48 hours using the Griess reaction.

[1] = test system: EOC 13.31 microglia cells; experiment: Inhibition of NO release from microglia following 24 hours pretreatment (Example 10); details: for inhibition at 50 µM: Microglia
How it was run: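 Confluent EOC 13.31 cells pretreated 24 hours with 50 μM compound (from 10 mM DMSO stock), then stimulated with 10 μg/ml LPS plus 10 ng/ml IFNγ without media change. After a further 48 hours, NO release was measured by Griess Reaction.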

[2] = test system: EOC 13.31 microglia cells; experiment: NO release inhibition in LPS/IFNγ stimulated microglia, concurrent treatment, Griess reaction at 24 hours (Example 6); details: 24 hours; for NO release, Avg: 50 μM; for inhibition at 50 µM: Microglia
How it was run: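 Confluent EOC 13.31 microglia were given 50 μM compound together with 1 pg/ml LPS plus 1 ng/ml IFNγ, or without stimulation. NO release was quantified spectrophotometrically by Griess reaction 24 hours later.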

[3] = dose 0.5 μM, LPS/IFNγ, 48 hours
[4] = dose 100 μM, LPS/IFNγ, 48 hours
[5] = dose 250 μM, LPS/IFNγ, 48 hours
[6] = dose 500 μM, LPS/IFNγ, 48 hours

O=C(NCc1ccc(O)c(O)c1)C(=Cc1ccc(O)c(O)c1)NC(=O)c1ccc(O)c(O)c1 [Compound 21, α-(3,4-dihydroxybenzamido)-3,4-dihydroxycinnamic acid 3,4-dihydroxybenzyl amide]
inhibition at 50 µM (microglia): 18%
inhibition at 0.5 µM (Microglial cells; Microglia, 48 h, dose 0.5 μM, NO release, LPS/IFNγ, 48 hours, read-out: Avg % Inhibition): -0.76%
inhibition at 1 µM (Microglial cells; Microglia, 48 h, dose 1 μM, NO release, LPS/IFNγ, 48 hours, read-out: Avg % Inhibition): 1.01%
inhibition at 5 µM (Microglial cells; Microglia, 48 h, dose 5 μM, NO release, LPS/IFNγ): 0.76%
inhibition at 10 µM (Microglial cells; Microglia, 48 h, dose 10 μM, NO release, LPS/IFNγ): -1.27%
inhibition at 25 µM (Microglial cells; Microglia, 48 h, dose 25 μM, NO release, LPS/IFNγ): 4.82%
inhibition at 50 µM (Microglial cells; Microglia, 48 h, dose 50 μM, NO release, LPS/IFNγ): 13.2%
inhibition at 100 µM (Microglial cells; Microglia, 48 h, dose 100 μM, NO release, LPS/IFNγ, 48 hours, read-out: Avg % Inhibition): 35.2%
inhibition at 100 µM (Microglial cells; Microglia, 48 h, dose 100 μM, individual replicates, NO release, LPS/IFNγ, 48 hours, read-out: % inhibition): 29.4%
inhibition at 250 µM (Microglial cells; Microglia, 48 h, dose 250 μM, NO release, LPS/IFNγ, 48 hours, read-out: Avg % Inhibition): 83.5%
inhibition at 250 µM (Microglial cells; Microglia, 48 h, dose 250 μM, individual replicates, NO release, LPS/IFNγ, 48 hours, read-out: % inhibition): 81%
inhibition at 500 µM (Microglial cells; Microglia, 48 h, dose 500 μM, NO release, LPS/IFNγ, 48 hours, read-out: Avg % Inhibition): 80.3%
inhibition at 500 µM (Microglial cells; Microglia, 48 h, dose 500 μM, individual replicates, NO release, LPS/IFNγ, 48 hours, read-out: % inhibition): 78%
μM NO release (Microglial cells; [3]): 19.722 µM and 20.139 µM and 20.417 µM
μM NO release (No LPS average subtracted) (Microglial cells; [3]): 18.02 µM and 18.44 µM and 18.72 µM
% inhibition (Microglial cells; dose 0.5 μM, individual replicates, NO release, LPS/IFNγ, 48 hours): 1.27% and −1.01% and −2.54%
μM NO release (Microglial cells; dose 1 μM, LPS/IFNγ, 48 hours): 20.694 µM and 19.444 µM and 19.167 µM
μM NO release (No LPS average subtracted) (Microglial cells; dose 1 μM, LPS/IFNγ, 48 hours): 18.99 µM and 17.74 µM and 17.47 µM
% inhibition (Microglial cells; dose 1 μM, individual replicates, NO release, LPS/IFNγ, 48 hours): −4.06% and 2.79% and 4.31%
μM NO release (Microglial cells; dose 5 μM, LPS/IFNγ, 48 hours): 20.278 µM and 20.000 µM and 19.167 µM
μM NO release (No LPS average subtracted) (Microglial cells; dose 5 μM, LPS/IFNγ, 48 hours): 18.58 µM and 18.30 µM and 17.47 µM
% inhibition (Microglial cells; dose 5 μM, individual replicates, NO release, LPS/IFNγ, 48 hours): −1.78% and −0.25% and 4.31%
μM NO release (Microglial cells; dose 10 μM, LPS/IFNγ, 48 hours): 20.556 μM (2×) and 19.444 μM
μM NO release (No LPS average subtracted) (Microglial cells; dose 10 μM, LPS/IFNγ, 48 hours): 18.86 μM (2×) and 17.74 μM
% inhibition (Microglial cells; dose 10 μM, individual replicates, NO release, LPS/IFNγ, 48 hours): −3.30% (2×) and 2.79%
μM NO release (Microglial cells; dose 25 μM, LPS/IFNγ, 48 hours): 19.722 µM and 18.889 µM and 18.611 µM
μM NO release (No LPS average subtracted) (Microglial cells; dose 25 μM, LPS/IFNγ, 48 hours): 18.02 µM and 17.19 µM and 16.91 µM
% inhibition (Microglial cells; dose 25 μM, individual replicates, NO release, LPS/IFNγ, 48 hours): 1.27% and 5.83% and 7.36%
μM NO release (Microglial cells; dose 50 μM, LPS/IFNγ, 48 hours): 18.472 µM and 16.806 µM and 17.361 µM
μM NO release (No LPS average subtracted) (Microglial cells; dose 50 μM, LPS/IFNγ, 48 hours): 16.77 µM and 15.11 µM and 15.66 µM
% inhibition (Microglial cells; dose 50 μM, individual replicates, NO release, LPS/IFNγ, 48 hours): 8.12% and 17.25% and 14.20%
μM NO release (Microglial cells; [4]): 14.583 µM and 12.639 µM and 13.333 µM
μM NO release (No LPS average subtracted) (Microglial cells; [4]): 12.88 µM and 10.94 µM and 11.63 µM
% inhibition (Microglial cells; dose 100 μM, individual replicates, NO release, LPS/IFNγ, 48 hours): 40.07% and 36.27%
μM NO release (Microglial cells; [5]): 5.163 µM and 3.940 µM and 5.027 µM
μM NO release (No LPS average subtracted) (Microglial cells; [5]): 3.46 µM and 2.24 µM and 3.33 µM
% inhibition (Microglial cells; dose 250 μM, individual replicates, NO release, LPS/IFNγ, 48 hours): 87.73% and 81.77%
μM NO release (Microglial cells; [6]): 5.707 µM and 4.348 µM and 5.842 µM
μM NO release (No LPS average subtracted) (Microglial cells; [6]): 4.01 µM and 2.65 µM and 4.14 µM
% inhibition (Microglial cells; dose 500 μM, individual replicates, NO release, LPS/IFNγ, 48 hours): 85.49% and 77.31%
inhibition of NO release, in words (Microglial cells; dose response 0.5-500 μM): most effective at the 250 μM dose
% inhibition ([1]; 50 uM pretreatment 24 hours, then LPS/IFNγ 48 hours, single replicates): 82.29% and 84.17%
inhibition at 50 µM ([1]; 50 uM pretreatment 24 hours, then LPS/IFNγ 48 hours, read-out: Avg % Inhibition): 83.9%
inhibition at 50 µM ([1]; 50 uM pretreatment 24 hours, then LPS/IFNγ 48 hours, single replicates, read-out: % inhibition): 85.2%
inhibition at 50 µM ([1]; 50 μM pretreatment, read-out: inhibition of NO release following pretreatment): > 75%
NO release, Avg ([2]; Compound + LPS/IFNγ): 15.3486 µM
NO release, Avg ([2]; Compound Only (without LPS/IFNγ)): -0.0417 µM
inhibition at 50 µM ([2]; Compound + LPS/IFNγ, read-out: % inhibition of NO release): 17.6%
inhibition at 50 µM ([2]; Table 2 summary, LPS/IFNγ, read-out: % Inhibition (summary of inhibition of NO release)): 17.6%
